The source of these data is patent publication US20200289144A1, “DEVICE, METHOD AND FORMULATION FOR CHEMICALLY ASSISTED DISSECTION” (priority 2016, published 2020).

Data set [1] has as its system human MRC-5 fibroblasts. Nature of the data set: Quantitative evaluation of cytotoxicity, viability assay using MU reagent. Format: cell-based. To be noted: for cytotoxicity (percentage of viability below 70% compared to culture medium): result in words. As for the experimental part: Two experiments were performed. […] All samples were assayed in triplicate.
The cytotoxicity is defined by a viability of a test substance below 70% in compartion to culture medium.

Data set [2] has as its system human MRC-5 fibroblasts. Nature of the data set: Qualitative evaluation of cytotoxicity by microscopic examination. To be noted: mean ± SD of scores. As for the experimental part:
In vitro cytotoxicity of Mesna in human MRC-5 fibroblasts was evaluated. Two experiments were performed. The first one was performed with two doses of Mesna (5% and 10%) and NaCl (7.06 and 3.53%) and the second one was performed with three doses of Mesna (5, 10 and 20%) and the three corresponding doses of NaCl (7.06, 3.53 and 1.76%). All samples were assayed in triplicate. Evaluation of cytotoxicity was evaluated after the following times: T15 min, T30 min, T1h, T2h, T4h, T8h and T24h.
Cells were thawed according to the standard operating procedure No. TEC-005 and subcultured according to the standard operating procedure No. TEC-001. The cell line was cultured in 75 cm^2-flasks in appropriated culture medium.
A score was assigned based on observations.

The nature of data set [3]: Mesna purity before and after sterilization using X-rays and gamma irradiation. In kind it is physicochemical. An excerpt: Mesna purity has been evaluated prior and after sterilization using X-rays and gamma irradiation.

As for `O=S(=O)([O-])CCS.[Na+]` [Mesna 5%, Sodium 2-mercaptoethanesulfonate], the “percentage of cell viability compared to culture medium (100% of viability)” value (shortened to “percentage … (100% of viability)”) in the data set with human MRC-5 fibroblasts [1] (15 min (0.25 h) exposure) was 66%; in the data set on human MRC-5 fibroblasts [1] (30 min (0.5 h) exposure), 47.6%; in the data set on human MRC-5 fibroblasts [1] (1 h exposure), 50.4%; in the data set with human MRC-5 fibroblasts [1] (2 h exposure), 39.7%; with human MRC-5 fibroblasts [1] (4 h exposure), 12%; with human MRC-5 fibroblasts [1] (8 h exposure), 3.4%. For the same molecule, in the data set with human MRC-5 fibroblasts [1] (24 h exposure), the “percentage … (100% of viability)” value stood at 1.4%. For the same molecule, the “cytotoxicity score (microscopic examination)” value (“cytotoxicity score” below) in the data set on human MRC-5 fibroblasts [2] (15 min exposure) is given as 0.0 ± 0.0; in the data set on human MRC-5 fibroblasts [2] (30 min exposure), 1.5 ± 0.7; with human MRC-5 fibroblasts [2] (1 h exposure), 1.5 ± 0.7; in the data set on human MRC-5 fibroblasts [2] (2 h exposure) it was 3.0 ± 0.0; in the data set on human MRC-5 fibroblasts [2] (4 h exposure) it was 3.0 ± 0.0; in the data set on human MRC-5 fibroblasts [2] (8 h exposure) it was 3.0 ± 0.0. In the data set on human MRC-5 fibroblasts [2] (24 h exposure), the “cytotoxicity score” value was 4 ± 0.
In the case of `O=S(=O)([O-])CCS.[Na+]` [Mesna 10%, Sodium 2-mercaptoethanesulfonate], the “percentage … (100% of viability)” value stood at 62.3% in the data set with human MRC-5 fibroblasts [1] (15 min (0.25 h) exposure); 54.8% with human MRC-5 fibroblasts [1] (30 min (0.5 h) exposure); 20.6% in the data set with human MRC-5 fibroblasts [1] (1 h exposure); 4.1% with human MRC-5 fibroblasts [1] (2 h exposure); 3.2% in the data set with human MRC-5 fibroblasts [1] (4 h exposure); 3.3% in the data set on human MRC-5 fibroblasts [1] (8 h exposure). Further, the “percentage … (100% of viability)” value in the data set on human MRC-5 fibroblasts [1] (24 h exposure) stood at 1.1%. The “cytotoxicity score” value with human MRC-5 fibroblasts [2] (15 min exposure) is given as 0.0 ± 0.0; in the data set with human MRC-5 fibroblasts [2] (30 min exposure), 0.0 ± 0.0; with human MRC-5 fibroblasts [2] (1 h exposure) it was 1.0 ± 0.0; with human MRC-5 fibroblasts [2] (2 h exposure), 3.0 ± 0.0; in the data set with human MRC-5 fibroblasts [2] (4 h exposure), 3.0 ± 0.0; in the data set on human MRC-5 fibroblasts [2] (8 h exposure), 3.0 ± 0.0. Further, the “cytotoxicity score” value in the data set with human MRC-5 fibroblasts [2] (24 h exposure) is 4 ± 0.
On to `O=S(=O)([O-])CCS.[Na+]` [Mesna 20%, Sodium 2-mercaptoethanesulfonate], for which the “percentage … (100% of viability)” value is −10.2% in the data set with human MRC-5 fibroblasts [1] (15 min (0.25 h) exposure); −1.2% with human MRC-5 fibroblasts [1] (30 min (0.5 h) exposure); 47.2% with human MRC-5 fibroblasts [1] (1 h exposure); 11.8% in the data set on human MRC-5 fibroblasts [1] (2 h exposure); 4.6% in the data set with human MRC-5 fibroblasts [1] (4 h exposure); 12.1% in the data set with human MRC-5 fibroblasts [1] (8 h exposure). Besides, in the data set with human MRC-5 fibroblasts [1] (24 h exposure), the “percentage … (100% of viability)” value amounted to 18.3%. Besides, the “cytotoxicity score” value with human MRC-5 fibroblasts [2] (15 min exposure) was found to be 0.0; with human MRC-5 fibroblasts [2] (30 min exposure), 1.0; in the data set on human MRC-5 fibroblasts [2] (1 h exposure), 2.0; in the data set on human MRC-5 fibroblasts [2] (2 h exposure) it was 3.0; in the data set on human MRC-5 fibroblasts [2] (4 h exposure), 3.0; in the data set on human MRC-5 fibroblasts [2] (8 h exposure), 3.0. In the data set on human MRC-5 fibroblasts [2] (24 h exposure), the “cytotoxicity score” value turned out to be 4.0.
On to `O=S(=O)([O-])CCS.[Na+]` [Mesna powder, Sodium 2-mercaptoethanesulfonate], for which the Mesna purity in data set [3] (After X-ray irradiation) worked out at 89.0; in data set [3] (After gamma irradiation), 88.9; in data set [3] (Prior irradiation) it was 89.6.
Regarding `[Cl-].[Na+]` [NaCl 1.76%, NaCl], the “percentage … (100% of viability)” value in the data set on human MRC-5 fibroblasts [1] (15 min (0.25 h) exposure) is 88.8%; in the data set on human MRC-5 fibroblasts [1] (30 min (0.5 h) exposure), 102.6%; in the data set on human MRC-5 fibroblasts [1] (1 h exposure), 95%; with human MRC-5 fibroblasts [1] (2 h exposure), 75.5%; with human MRC-5 fibroblasts [1] (4 h exposure) it was 44%; in the data set with human MRC-5 fibroblasts [1] (8 h exposure), 23.1%. Also, the “percentage … (100% of viability)” value in the data set with human MRC-5 fibroblasts [1] (24 h exposure) is on record as 8%. For the same molecule, the “cytotoxicity (percentage of viability below 70% compared to culture medium)” value in the data set with human MRC-5 fibroblasts [1] is reported as “not cytotoxic after 2 hours”. In addition, the “cytotoxicity score” value is 0.0 in the data set with human MRC-5 fibroblasts [2] (15 min exposure); 0.0 in the data set on human MRC-5 fibroblasts [2] (30 min exposure); 1.0 with human MRC-5 fibroblasts [2] (1 h exposure); 2.0 in the data set on human MRC-5 fibroblasts [2] (2 h exposure); 3.0 in the data set on human MRC-5 fibroblasts [2] (4 h exposure); 3.0 in the data set on human MRC-5 fibroblasts [2] (8 h exposure). Further, the “cytotoxicity score” value in the data set on human MRC-5 fibroblasts [2] (24 h exposure) came out at 4.0.
As for `[Cl-].[Na+]` [NaCl 3.53%, NaCl], the “percentage … (100% of viability)” value is on record as 82.7% with human MRC-5 fibroblasts [1] (15 min (0.25 h) exposure); 55.4% with human MRC-5 fibroblasts [1] (30 min (0.5 h) exposure); 16.3% in the data set on human MRC-5 fibroblasts [1] (1 h exposure); 12.7% in the data set on human MRC-5 fibroblasts [1] (2 h exposure); 10.5% with human MRC-5 fibroblasts [1] (4 h exposure); 14.4% in the data set with human MRC-5 fibroblasts [1] (8 h exposure). In addition, the “percentage … (100% of viability)” value in the data set on human MRC-5 fibroblasts [1] (24 h exposure) came to 7.2%. The “cytotoxicity score” value in the data set with human MRC-5 fibroblasts [2] (15 min exposure) was 0.0 ± 0.0; in the data set on human MRC-5 fibroblasts [2] (30 min exposure), 0.0 ± 0.0; with human MRC-5 fibroblasts [2] (1 h exposure), 2 ± 1.4; with human MRC-5 fibroblasts [2] (2 h exposure) it was 3.0 ± 0.0; in the data set on human MRC-5 fibroblasts [2] (4 h exposure), 3.0 ± 0.0; in the data set on human MRC-5 fibroblasts [2] (8 h exposure) it was 3.0 ± 0.0. In addition, in the data set with human MRC-5 fibroblasts [2] (24 h exposure), the “cytotoxicity score” value is 4 ± 0.
Regarding `[Cl-].[Na+]` [NaCl 7.06%, NaCl], the “percentage … (100% of viability)” value with human MRC-5 fibroblasts [1] (15 min (0.25 h) exposure) was 45.2%; in the data set with human MRC-5 fibroblasts [1] (30 min (0.5 h) exposure) it was 25.3%; with human MRC-5 fibroblasts [1] (1 h exposure), 12.7%; with human MRC-5 fibroblasts [1] (2 h exposure), 12.3%; in the data set with human MRC-5 fibroblasts [1] (4 h exposure) it was 10.8%; in the data set with human MRC-5 fibroblasts [1] (8 h exposure), 14.6%. The “percentage … (100% of viability)” value in the data set with human MRC-5 fibroblasts [1] (24 h exposure) worked out at 7.3%. Besides, the “cytotoxicity score” value in the data set with human MRC-5 fibroblasts [2] (15 min exposure) worked out at 0.0 ± 0.0; with human MRC-5 fibroblasts [2] (30 min exposure) it was 0.5 ± 0.7; in the data set with human MRC-5 fibroblasts [2] (1 h exposure) it was 2.5 ± 0.7; in the data set with human MRC-5 fibroblasts [2] (2 h exposure), 3.0 ± 0.0; in the data set with human MRC-5 fibroblasts [2] (4 h exposure), 3.0 ± 0.0; in the data set on human MRC-5 fibroblasts [2] (8 h exposure), 3.0 ± 0.0. Also, in the data set on human MRC-5 fibroblasts [2] (24 h exposure), the “cytotoxicity score” value came to 4 ± 0.
With `Oc1ccccc1` [Phenol 0.5%, Phenol], the “percentage … (100% of viability)” value with human MRC-5 fibroblasts [1] (15 min (0.25 h) exposure) was found to be 10.9%; in the data set with human MRC-5 fibroblasts [1] (30 min (0.5 h) exposure) it was 13.2%; with human MRC-5 fibroblasts [1] (1 h exposure) it was 11.3%; in the data set with human MRC-5 fibroblasts [1] (2 h exposure), 13.6%; in the data set on human MRC-5 fibroblasts [1] (4 h exposure), 10.4%; with human MRC-5 fibroblasts [1] (8 h exposure) it was 14.2%. Also, the “percentage … (100% of viability)” value in the data set with human MRC-5 fibroblasts [1] (24 h exposure) came out at 8.5%. Besides, the “cytotoxicity (percentage of viability below 70% compared to culture medium)” value in the data set with human MRC-5 fibroblasts [1] was “observed at all time points”. Besides, the “cytotoxicity score” value in the data set with human MRC-5 fibroblasts [2] (15 min exposure), with human MRC-5 fibroblasts [2] (30 min exposure), in the data set on human MRC-5 fibroblasts [2] (1 h exposure), with human MRC-5 fibroblasts [2] (2 h exposure), in the data set on human MRC-5 fibroblasts [2] (4 h exposure) and with human MRC-5 fibroblasts [2] (8 h exposure) was 3.0 ± 0.0 each time. Also, the “cytotoxicity score” value in the data set on human MRC-5 fibroblasts [2] (24 h exposure) is 4.0 ± 0.0.
`O=S(=O)([O-])CCS.[Na+]` [Pure lyophilized Mesna, Sodium 2-mercaptoethanesulfonate]: the figures for the Mesna purity in data set [3] (After X-ray irradiation), in data set [3] (After gamma irradiation) and in data set [3] (Prior irradiation) were 89.3, 89.1 and 89.4, respectively.
